Laboratory results from the NIST ThermoML archive (doi:10.1016/j.jct.2005.12.010).

Test: xn = mol fraction of the nth substance listed
Conditions: 101 kPa, Liquid

CC1CCCC1 [methylcyclopentane] + CCCCO
speed of sound [m/s]
Conditions	293.15 K	298.15 K	303.15 K
x1 = 0.0485	1250	1233	1216
x1 = 0.0993	1243	1226	1208
x1 = 0.1973	1231	1213	1194
x1 = 0.3038	1219	1200	1180
x1 = 0.4036	1210	1190	1169
x1 = 0.5055	1202	–	–
x1 = 0.5078	–	1181	1160
x1 = 0.6152	1195	1173	1151
x1 = 0.7053	1191	1169	1146
x1 = 0.8132	1189	1166	1143
x1 = 0.9096	1190	1166	1143
x1 = 0.9537	1191	1168	1145
x1 = 1	1197	1174	1150

CC1CCCC1 [methylcyclopentane] + CCCO
speed of sound [m/s]
Conditions	293.15 K	298.15 K	303.15 K
x1 = 0.0475	1217	1199	1182
x1 = 0.0967	1211	1193	1175
x1 = 0.2055	1201	1182	1163
x1 = 0.2984	1195	1175	1155
x1 = 0.4014	1189	1169	1148
x1 = 0.5007	1185	1164	1142
x1 = 0.6133	1183	1161	1139
x1 = 0.7115	1183	1160	1137
x1 = 0.8124	1184	1161	1138
x1 = 0.9073	1188	1164	1141
x1 = 0.9529	1191	1167	1144
x1 = 1	1197	1174	1150
